Test results taken from paper PMC4203401 (Journal of Medicinal Chemistry, 2014).

Key:
[1] = target: HIV-1 IN (rIN), strand transfer (Human immunodeficiency virus type 1 group M subtype B, UniProt P04585); assay: HIV-1 IN gel-based assay, strand transfer; type: biochemical; conditions: IC50 for strand transfer
[2] = target: polymerase function of RT (Human immunodeficiency virus type 1 group M subtype B, UniProt P04585); assay: HIV-1 RT polymerase inhibition; type: biochemical
HIV-1(IIIB) = assay: HIV-1 replication inhibition in HeLa-CD4-LTR-β-gal cells; type: cell-based
[3] = target: HIV-1 RT-associated RNase H activity (Human immunodeficiency virus type 1 group M subtype B, UniProt P04585); assay: HIV-1 RT RNase H inhibition; type: biochemical
HTLV-IIIB = conditions: read-out: EC50, originally reported; HTLV-IIIB-based infection assay; ref 19b; cited from earlier work

Compound | IC50 [1] | Inhibition of polymerase function of RT (inactive up to) [2] | Ability to inhibit RNase H [3] | other results
O=C(O)/C(O)=C/C(=O)c1cn(Cc2ccc(F)cc2)c2cc(N3CCOCC3)ccc2c1=O [Compound 12f, 4-[1-[(4-Fluorophenyl)methyl]-7-(morpholin-4-yl)-4-(1H)-quinolinon-3-yl]-2-hydroxy-4-oxo-2-butenoic Acid] | < 0.1 µM | > 40 µM | – | –
O=C(O)/C(O)=C/C(=O)c1cn(Cc2ccc(F)cc2)c2cc(N3CCN(CCCCl)CC3)ccc2c1=O [Compound 12i, 4-[1-[(4-Fluorophenyl)methyl]-7-[N-(3-chloroprop-1-yl)piperazin-1-yl]-4-(1H)-quinolinon-3-yl]-2-hydroxy-4-oxo-2-butenoic Acid] | < 0.1 µM | > 40 µM | – | Block of HIV-1 replication (HIV-1(IIIB); HeLa-CD4-LTR-β-gal cells, HIV-1(IIIB)): unable to block replication
C[C@@H]1CCO[C@H]2Cn3cc(C(=O)NCc4ccc(F)cc4F)c(=O)c(O)c3C(=O)N12 [Compound 3, dolutegravir] | – | – | inactive | –
CCOC(=O)/C(O)=C/C(=O)c1cn(Cc2ccc(F)cc2)c2cc(N(C)C)ccc2c1=O [Compound 11g, 4-[1-[(4-Fluorophenyl)methyl]-7-(dimethylamino)-4-(1H)-quinolinon-3-yl]-2-hydroxy-4-oxo-2-butenoic Acid Ethyl Ester] | – | – | – | SI, selectivity index (CC50/EC50) (HIV-1(IIIB); CC50/EC50 in HeLa cells): 20
Cc1nnc(C(=O)NC(C)(C)c2nc(C(=O)NCc3ccc(F)cc3)c(O)c(=O)n2C)o1 [Compound 2, raltegravir] | – | – | inactive | –
O=C(O)/C(O)=C/C(=O)c1cn(Cc2ccc(F)cc2)c2cc(N3CCCC3)ccc2c1=O [Compound 7b, reference compound] | – | > 40 µM | – | EC50 (HTLV-IIIB): 0.17 µM
